Patent US20080171764A1, “METHODS FOR PREVENTING, MANAGING, AND REVERSING DISEASE CAUSED BY INFLAMMATION MEDIATED VASCULAR LESIONS” (priority 2007, published 2008)

Key:
[1] = sirolimus whole blood pharmacokinetics in apoE-/- mice (LC-MS/MS); type: in vivo; conditions: i.p. daily, 0.5, 1.0 and 4.0 mg/kg
Procedure: (§1) Upon initiation of the pro-atherogenic diet and osmotic mini-pump implantation, mice were randomly assigned to four groups; namely, vehicle control, rapamycin or sirolimus 0.5 mg/kg, sirolimus 1.0 mg/kg and sirolimus 4.0 mg/kg body weight. The defined amount of sirolimus was dissolved in ethanol, brought up in a vehicle comprising 0.2 percent Sodium carboxymethylcellulose and 0.25 percent tween 80) and administrated to mice (i.p., daily).
Sirolimus was quantitated using liquid-liquid extraction and reverse-phase liquid chromatography mass spectrometry (LC-MS/MS). Briefly, 100 μl of mouse whole blood sample underwent protein precipitation with 5 percent Methanol/Zinc sulfate solution containing the internal standard ascomycin. After centrifugation of the resulting solution, the liquid mixture proceeded with liquid-liquid extraction with 1-chlorobutane. The combined organic extract was then blown down to dryness and reconstituted with 50:50 Methanol:20 mM ammonium acetate solution. The samples were analyzed on API-5000 using C18 reverse-phase chromatography in Multiple Reaction Monitoring (MRM) mode using atmospheric pressure chemical ionization (ApCI) approach. The calibration standard curve results for sirolimus in mouse whole blood were acceptable from 0.5 ng/ml to 10,000 ng/ml with correlation coefficient of 0.998. […]

apoE−/− mice [2] = assay: health status, body weight and re-suturing incidence post mini-pump surgery; type: in vivo
From the text: (§2) ApoE^−/− mice (backcrossed ten times to the C57BL/6 background) were purchased from The Jackson Laboratory. The mice were kept on a twelve-hour light/twelve-hour dark regimen upon arrival. All animal experiments were approved by the IACUC of the Consumer & Personal Product Worldwide, in accordance with AAALAC guidelines. Eight week old, male apoE^−/− mice were fed a normal mouse-chow diet (RP5001; PMI Feeds Inc., St. Louis, Mo.) and acclimated for one week before switching to a pro-atherogenic high fat, high cholesterol, diet (“Western diet”, 21% fat, 0.2% cholesterol, diet No. 88137, Harlan-Teklad, Madison, Wis.) for four weeks.
(§3) Upon initiation of the pro-atherogenic diet, Alzet osmotic mini-pumps (Model 2004; ALZA Scientific Products, Mountain View, Calif.) were implanted into the apoE^−/− mice subcutaneously. The mini-pumps were loaded with angII (EMD Biosciences, San Diego, Calif.) at the delivery rate of 1,000 ng/min/kg for twenty-eight days. The mice were anesthetized using isoflurane for the implantation of the mini-pumps. Small incisions in the lower back of the neck were made and the mini-pumps were inserted into the subcutaneous space of the mice. The incisions were then closed using sterile staplers. Triple antibiotic ointment was applied to each incision post surgery. The mice on the high fat, high cholesterol diet were sacrificed by CO2 inhalation twenty-eight days post mini-pump implantation as is explained in detail subsequently.
as §1
The data is depicted as re-suturing incedince post surgery per group size. A clear increase of the suture index is observed in response to sirolimus administration in a dose dependent manner.

[3] = plasma lipids (total cholesterol, triglycerides, LDL and HDL cholesterol); type: in vivo, mice
From the text: as §2
Upon initiation of the pro-atherogenic diet, Alzet osmotic mini-pumps (Model 2004; ALZA Scientific Products, Mountain View, Calif.) were implanted into the apoE^−/− mice subcutaneously. The mini-pumps were loaded with angII (EMD Biosciences, San Diego, Calif.) at the delivery rate of 1,000 ng/min/kg for twenty-eight days. The mice were anesthetized using isoflurane for the implantation of the mini-pumps. […]
Plasma triglyceride and total cholesterol levels were determined via an automated enzymatic technique (Equal Diagnostic Inc., Exton, Pa.). […] Aliquots of mouse plasma (100 μl) were injected onto the column, separated with a buffer containing 0.15 M NaCl, 0.01 M Na2HPO4, and 0.1 mM EDTA (pH 7.5) at a flow rate of 0.5 mL/min, and analyzed for lipids.

apoE−/− mice [4] = assay: atherosclerosis quantitation, en face surface lesion analysis (Sudan IV), 4-week study; type: in vivo; conditions: 1.0 mg/kg ip once daily, vehicle 12.9±1.8%, P<0.0005
From the text: ApoE^−/− mice (backcrossed ten times to the C57BL/6 background) were purchased from The Jackson Laboratory. The mice were kept on a twelve-hour light/twelve-hour dark regimen upon arrival. All animal experiments were approved by the IACUC of the Consumer & Personal Product Worldwide, in accordance with AAALAC guidelines. Eight week old, male apoE^−/− mice were fed a normal mouse-chow diet (RP5001; PMI Feeds Inc., St. Louis, Mo.) and acclimated for one week before switching to a pro-atherogenic high fat, high cholesterol, diet (“Western diet”, 21% fat, 0.2% cholesterol, diet No. 88137, Harlan-Teklad, Madison, Wis.) for four weeks. […]
As stated above, the mice were sacrificed by CO2 inhalation and bled from the abdominal vena cava. […] Atherosclerosis quantitation was assessed using two independent methods: “en face” surface lesion analysis and aortic root analysis. […] The extent of atherosclerosis is expressed as the percent of the aortic surface area covered by lesions. Aortic root analysis provided a second method verifying atherosclerosis quantitation. Briefly, alternate 8-μm frozen sections covering 300 μm of the proximal aorta, starting at the aortic sinus, were stained for atherosclerotic lesions with oil red O. Images of oil red O-stained aortic root sections were captured and analyzed using Image-Pro 6.0 analysis software. […]

apoE−/− mice [5] = assay: abdominal aortic adventitia lesion / AAA analysis (incidence, severity, diameter); type: in vivo
From the text: as §2
as §3, with “subsequently. […]” for “subsequently.”
The abdominal aorta was subjected to abdominal aortic adventitia lesion analysis. […] Classification of the adventitia lesions was determined according to the scale based on the gross appearance of the aorta reported by Daugherty et al. Briefly, I: Dilated lumen in the supra-renal region of the aorta with no thrombus; II: Remodeled tissue in the supra-renal region that frequently contains thrombus; III: A pronounced bulbous form of type II that contains thrombus; IV: A form in which there are multiple adventitia lesions containing thrombus, some overlapping, in the suprarenal area of the aorta.

apoE−/− mice [6] = assay: second study: established lesions, 8 weeks angII infusion and proatherogenic diet, en face analysis; type: in vivo; conditions: 1.0 mg/kg ip once daily for last 4 of 8 weeks; vehicle 37.6±2.7%, P<0.0001
Procedure: As stated above, the mice were sacrificed by CO2 inhalation and bled from the abdominal vena cava. The aortas were perfusion-fixed and post-fixed in 4 percent paraformaldehyde. Atherosclerosis quantitation was assessed using two independent methods: “en face” surface lesion analysis and aortic root analysis. The aortic arch and thoracic aorta (defined as above the last inter-costal artery) was subjected to “en face” analysis. Briefly, the aorta with major branches (left common carotid artery, right common carotid artery, left subclavian artery) was opened up. The lipid deposition in the inner aortic wall was stained in Sudan IV buffer. […] The extent of atherosclerosis is expressed as the percent of the aortic surface area covered by lesions. Aortic root analysis provided a second method verifying atherosclerosis quantitation. Briefly, alternate 8-μm frozen sections covering 300 μm of the proximal aorta, starting at the aortic sinus, were stained for atherosclerotic lesions with oil red O. Images of oil red O-stained aortic root sections were captured and analyzed using Image-Pro 6.0 analysis software. All samples were coded by one investigator and analyzed by another investigator who is completely blinded to the codes. […]

time of peak whole blood drug level post injection [1]: 1 h | whole blood drug level at 24 hours ([1]; 24 hours post injection): trace level | elevation of LDL cholesterol ([3]; all sirolimus treated mice vs vehicle control): > 60% | plasma triglyceride ([3]; regardless of the dosage employed): trend of elevated triglyceride
Compound: CO[C@H]1C[C@@H]2CC[C@@H](C)[C@@](O)(O2)C(=O)C(=O)N2CCCC[C@H]2C(=O)O[C@H]([C@H](C)C[C@@H]2CC[C@@H](O)[C@H](OC)C2)CC(=O)[C@H](C)/C=C(\C)[C@@H](O)[C@@H](OC)C(=O)[C@H](C)C[C@H](C)/C=C/C=C/C=C/1C [sirolimus]
incidence of re-suturing post surgery for mini-pump implantation (wound healing) (apoE−/− mice [2]; 0.5, 1.0 and 4.0 mg/kg i.p. daily): increased incidence of re-suturing | body weight (apoE−/− mice [2]; all 3 sirolimus treated groups vs vehicle control): trend of decreased body weight | health status (apoE−/− mice [2]; apoE−/− mice, i.p. daily, 0.5, 1.0 and 4.0 mg/kg, 4 weeks): not overtly affected | atherosclerotic plaque area (en face analysis) at 4 weeks (apoE−/− mice [4]): 3.1±0.4% | incidence of abdominal aortic adventitia lesion (apoE−/− mice [5]; 1 of 22 mice receiving sirolimus, vehicle control 30 percent (3 of 10)): 4.5% | severity of AAA as determined by aortic diameter (apoE−/− mice [5]; vehicle 1.38±0.25 mm, P<0.005): 0.74±0.02 mm | incidence of AAA (apoE−/− mice [5]; vehicle 32%, P<0.005): 0% | atherosclerotic plaque area (en face analysis) of established lesions at 8 weeks (apoE−/− mice [6]): 18.4±2.3%
